3 compounds from ChEMBL document CHEMBL4823282, “Novel Broad-Spectrum Antimicrobial Peptide Derived from Anoplin and Its Activity on Bacterial Pneumonia in Mice” (J Med Chem, 2021) can be followed below.

Values after ≈ are worked out from the molar mass of the structure shown. Where a SMILES comes first, the peptide text is derived from it.

The test system of data set [1] is Staphylococcus aureus. As to the kind of experiment: Antibacterial activity against Staphylococcus aureus ATCC 25923 incubated for 18 hrs by CLSI based broth dilution method. In kind it is functional.
The subject of another data set is Bacillus subtilis. Description: Antibacterial activity against Bacillus subtilis ATCC 23857 incubated for 18 hrs by CLSI based broth dilution method. It is filed as functional. A general note: Dilution methods test growth across graded concentrations, often in twofold steps.
A further data set has as its system Enterococcus faecalis. Description: Antibacterial activity against Enterococcus faecalis ATCC 29212 incubated for 18 hrs by CLSI based broth dilution method. It is filed as functional.
The subject of data set [2] is Staphylococcus epidermidis. As to the kind of experiment: Antibacterial activity against Staphylococcus epidermidis ATCC 12228 incubated for 18 hrs by CLSI based broth dilution method. In kind it is functional.
A further data set has as its system Escherichia coli. As to the kind of experiment: Antibacterial activity against Escherichia coli ATCC 25922 incubated for 18 hrs by CLSI based broth dilution method. It is filed as functional.
Data set [3] deals with Pseudomonas aeruginosa. As to the kind of experiment: Antibacterial activity against Pseudomonas aeruginosa ATCC 27853 incubated for 18 hrs by CLSI based broth dilution method. In kind it is functional.
The subject of data set [4] is Klebsiella pneumoniae. As to the kind of experiment: Antibacterial activity against Klebsiella pneumoniae ATCC 700603 incubated for 18 hrs by CLSI based broth dilution method. It is filed as functional.
For another data set, the system named is Acinetobacter baumannii. As to the kind of experiment: Antibacterial activity against Acinetobacter baumannii ATCC 19606 incubated for 18 hrs by CLSI based broth dilution method. It is filed as functional. The note with it: ATCC 19606 = CIP 70.34 = JCM 6841.
Data set [5] has as its system Staphylococcus aureus. As to the kind of experiment: Bactericidal activity against Staphylococcus aureus ATCC 25923 at 2MIC by time-kill assay. The conditions noted are these: time 24.0 hrs, TDE = time-dependent effect. In kind it is functional, organism-based.
Data set [6] concerns Klebsiella pneumoniae. Description: Bactericidal activity against Klebsiella pneumoniae 700603 at 2MIC by time-kill assay relative to control. It is filed as functional. The conditions noted are these: 2M, TDE = time-dependent effect.
The subject of a further data set is Erythrocyte. Description: Hemolytic activity in BALB/C mouse erythrocytes incubated for 1 hr by absorbance method. In kind it is ADME, cell-based.
Data set [7] in a line: Cytotoxicity against human glomerular mesangial cells incubated for 12 hrs by MTT assay. It is filed as cell-based. The note with it: Glomerular mesangial cell.
Data set [8] deals with Bacteria. As to the kind of experiment: Antibacterial activity against bacteria incubated for 18 hrs by CLSI based broth dilution method. In kind it is functional.
The test system of a further data set is Fungi. As to the kind of experiment: Antibacterial activity against fungi incubated for 18 hrs by CLSI based broth dilution method. In kind it is functional.
A short description of data set [9]: Selectivity ratio of MHC10 for BALB/C mouse erythrocytes to MIC for bacteria. In kind it is toxicity.
The nature of data set [10]: Selectivity ratio of MHC10 for BALB/C mouse erythrocytes to MIC for fungi. It is filed as toxicity.
Data set [11] has as its system Bacteria. Description: Antibacterial activity against Gram-positive bacteria incubated for 18 hrs by CLSI based broth dilution method. In kind it is functional.
Data set [12] can be described thus: Selectivity ratio of MHC10 for BALB/C mouse erythrocytes to MIC for gram positive bacteria. In kind it is toxicity.
Data set [13] deals with Bacteria. Description: Antibacterial activity against Gram-negative bacteria incubated for 18 hrs by CLSI based broth dilution method. It is filed as functional.
Data set [14] in a line: Selectivity ratio of MHC10 for BALB/C mouse erythrocytes to MIC for gram-negative bacteria. In kind it is toxicity.
The test system of data set [15] is Pseudomonas aeruginosa. Description: Synergistic antibacterial activity against Pseudomonas aeruginosa ATCC 27853 at 2 times MIC incubated for 18 to 24 hrs in presence of 2 times MIC of rifampicin by broth microdilution assay based checkerboard assay. In kind it is functional. The conditions noted are these: time 18-24 hrs.
Data set [16] relates to Pseudomonas aeruginosa. Description: Synergistic antibacterial activity against Pseudomonas aeruginosa ATCC 27853 at 2 times MIC incubated for 18 to 24 hrs in presence of 2 times MIC of polymyxin B by broth microdilution assay based checkerboard assay. The note with it: time 18-24 hrs. In kind it is functional.

As a reminder, the MIC is the lowest concentration found to suppress growth. A lower MIC goes with greater potency. On to `CN[C@H](CC(C)C)C(=O)N[C@H]1C(=O)N[C@@H](CC(N)=O)C(=O)N[C@H]2C(=O)N[C@H]3C(=O)N[C@H](C(=O)N[C@H](C(=O)O)c4cc(O)cc(O)c4-c4cc3ccc4O)[C@H](O)c3ccc(c(Cl)c3)Oc3cc2cc(c3O[C@@H]2O[C@H](CO)[C@@H](O)[C@H](O)[C@H]2O[C@H]2C[C@](C)(N)[C@H](O)[C@H](C)O2)Oc2ccc(cc2Cl)[C@H]1O` [VANCOMYCIN], for which the MIC against Staphylococcus aureus [1] is less than 1 µM; in the data set with Bacillus subtilis, less than 1 µM; against Enterococcus faecalis, less than 1 µM; in [2], less than 1 µM; in the data set with Escherichia coli, 64 µM (≈ 92.8 µg/mL); in the data set with Pseudomonas aeruginosa [3] it was 64 µM (≈ 92.8 µg/mL). Besides, the MIC against Klebsiella pneumoniae [4] is no less than 128 µM; against Acinetobacter baumannii, less than 1 µM. Besides, the Activity result in the data set on Staphylococcus aureus [5] and in the data set on Klebsiella pneumoniae [6] was “Tde” throughout.

A word on the IC50: it is the concentration that inhibits the measured activity by half. Higher therefore signals weaker potency in that assay. For the compound `CC(C)C[C@H](NC(=O)[C@H](Cc1c[nH]c2ccccc12)NC(=O)CN)C(=O)N[C@@H](CCCCN)C(=O)N[C@@H](CCCNC(=N)N)C(=O)N[C@@H](Cc1c[nH]c2ccccc12)C(=O)N[C@@H](CCCCN)C(=O)N[C@H](C(=O)N[C@@H](CC(C)C)C(=O)N[C@@H](Cc1c[nH]c2ccccc12)C(N)=O)[C@@H](C)O` (H-GWLKRWKTLW-NH2), the MIC against Staphylococcus aureus [1] was found to be 16 µM (≈ 22 µg/mL); in the data set on Bacillus subtilis, 16 µM (≈ 22 µg/mL); in the data set with Enterococcus faecalis, 64 µM (≈ 87.9 µg/mL); in data set [2], 32 µM (≈ 43.9 µg/mL); in the data set on Escherichia coli it was 16 µM (≈ 22 µg/mL); in the data set on Pseudomonas aeruginosa [3], 16 µM (≈ 22 µg/mL). The MIC in the data set on Klebsiella pneumoniae [4] came out at 16 µM (≈ 22 µg/mL); against Acinetobacter baumannii, 32 µM (≈ 43.9 µg/mL); against Bacteria [8] it was 20.8 µM (≈ 28.5 µg/mL); against Fungi, 20.8 µM (≈ 28.5 µg/mL); against Bacteria [11], 26.9 µM (≈ 36.9 µg/mL); with Bacteria [13], 16 µM (≈ 22 µg/mL). Further, in the data set on Erythrocyte, the MHC10 came out at 320 µM. In data set [7], this compound showed an IC50 of 105 µM. The selectivity ratio in data set [9] came to 15.4; in [10], 15.4; in [14], 20. Besides, the selectivity ratio at 18 h in data set [12] was 11.9. Also, the FIC with Pseudomonas aeruginosa [15] stood at 0.3125; in the data set on Pseudomonas aeruginosa [16] it was 0.25.

In the case of `C[C@@H](O)[C@H](NC(=O)[C@H](CCCCN)NC(=O)[C@H](Cc1c[nH]c2ccccc12)NC(=O)[C@H](CCCNC(=N)N)NC(=O)[C@H](CCCCN)NC(=O)[C@H](Cc1ccccc1)NC(=O)[C@H](Cc1ccccc1)NC(=O)CN)C(=O)N[C@@H](Cc1ccccc1)C(=O)N[C@@H](Cc1ccccc1)C(N)=O` (H-GFFKRWKTFF-NH2), the MIC is 16 µM (≈ 21.8 µg/mL) against Staphylococcus aureus [1]; 16 µM (≈ 21.8 µg/mL) in the data set on Bacillus subtilis; 64 µM (≈ 87.2 µg/mL) in the data set with Enterococcus faecalis; 4 µM (≈ 5.45 µg/mL) in data set [2]; 16 µM (≈ 21.8 µg/mL) in the data set with Escherichia coli; 16 µM (≈ 21.8 µg/mL) in the data set on Pseudomonas aeruginosa [3]. In addition, the MIC came to 32 µM (≈ 43.6 µg/mL) in the data set on Klebsiella pneumoniae [4]; 64 µM (≈ 87.2 µg/mL) in the data set with Acinetobacter baumannii; 19 µM (≈ 25.9 µg/mL) in the data set on Bacteria [8]; 19 µM (≈ 25.9 µg/mL) against Fungi; 16 µM (≈ 21.8 µg/mL) with Bacteria [11]; 22.6 µM (≈ 30.8 µg/mL) against Bacteria [13]. Besides, the MHC10 entry in the data set with Erythrocyte is on record as “>= 512 uM”. This compound also had an IC50 in [7] of 48.2 µM. Further, the selectivity ratio in [9] was found to be 26.9; in data set [10], 26.9; in data set [14], 22.6. Moreover, in data set [12], the selectivity ratio at 18 h stood at 32. Further, the FIC in the data set with Pseudomonas aeruginosa [15] was 0.3125; in the data set with Pseudomonas aeruginosa [16] it was 0.25.
